In ChEMBL document CHEMBL3045969, “Synthesis and evaluation of some new 4-aminopyridine derivatives as a potent antiamnesic and cognition enhancing drugs” (Med Chem Res, 2012) one finds Time data, which are given here for one compound.

Common to all, as to format: functional
What all share (conditions): route intraperitoneal

In assay [1] the test system is Rattus norvegicus. The experiment in a line: Antiamnesic activity in scopolamine-induced amnesia Charles Foster albino Rattus norvegicus (rat) model assessed as transfer latency time at 200 mg/kg, ip ip for 2 days measured 1 hr post last dose on day 2 by elevated plus maze test.
For assay [2], the system named is Rattus norvegicus. The assay can be described thus: Cognition enhancing activity in Charles Foster albino Rattus norvegicus (rat) assessed as transfer latency time at 200 mg/kg, ip for 2 days measured 1 hr post last dose on day 2 by elevated plus maze test.
The subject of assay [3] is Rattus norvegicus. The assay can be described thus: Antiamnesic activity in scopolamine-induced amnesia Charles Foster albino Rattus norvegicus (rat) model assessed as transfer latency time at 200 mg/kg, ip measured after 30 min by elevated plus maze test.
The subject of assay [4] is Rattus norvegicus. The experiment in a line: Cognition enhancing activity in Charles Foster albino Rattus norvegicus (rat) at 200 mg/kg, ip measured 30 min post dose by elevated plus maze test.

Turning to `NC(=O)CN1CCCC1=O` [PIRACETAM], the Time in the assay on Rattus norvegicus [1] came to 43.33 s; with Rattus norvegicus [2], 45.67 s; in the assay with Rattus norvegicus [3], 47 s; in the assay with Rattus norvegicus [4], 49.5 s.
